Here are results for two compounds from patent US20210128528A1, “USE OF 5HT2A INVERSE AGONISTS FOR TREATING PSYCHOSIS” (Axovant Sciences GmbH, priority 2017, published 2021).

In general, EC50 refers to the concentration that produces a half-maximal response. Read a high EC50 as weaker potency. A word on the IC50: it is the concentration at which inhibition is half-maximal.

The target of assay [1] is T1, 5HT2A receptor (h5HT2A-Dx-U2OS cells) (Homo sapiens, UniProt P28223).
T1 construct: beta-galactosidase enzyme fragment for complementation (the print says only EFC; from my own knowledge of PathHunter it is the ProLink tag on the receptor's C-terminus); host or cells: U2OS (h5HT2A-Dx-U2OS)
T1 sequence (P28223 whole entry, the tested form may be a part): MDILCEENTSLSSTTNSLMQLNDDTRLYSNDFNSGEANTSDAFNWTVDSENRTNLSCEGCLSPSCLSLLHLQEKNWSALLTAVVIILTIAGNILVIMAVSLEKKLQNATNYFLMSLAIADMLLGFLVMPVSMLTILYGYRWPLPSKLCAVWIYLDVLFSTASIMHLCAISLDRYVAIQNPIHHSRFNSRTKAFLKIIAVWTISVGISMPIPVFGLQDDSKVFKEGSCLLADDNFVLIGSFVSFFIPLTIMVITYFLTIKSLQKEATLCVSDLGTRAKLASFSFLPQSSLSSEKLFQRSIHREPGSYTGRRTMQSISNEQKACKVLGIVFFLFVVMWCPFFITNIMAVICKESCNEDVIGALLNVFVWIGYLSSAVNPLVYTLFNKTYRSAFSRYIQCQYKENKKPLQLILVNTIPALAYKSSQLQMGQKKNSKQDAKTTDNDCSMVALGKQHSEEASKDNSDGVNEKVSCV
As to the kind of experiment: cell-based.
Description: Cells were incubated with nelotanserin or clozapine for 90 minutes at 37° C. followed by addition of DiscoverX detection reagent for 60 minutes, after which luminescence was measured.
Drug treatment was performed for 90 minutes at 37 degrees Celsius followed by addition of DiscoverX detection reagent for 60 minutes at room temperature, after which luminescence was measured.
Cells were incubated with nelotanserin or clozapine for 90 minutes at 37° C. followed by addition of DiscoveRx detection reagent for 60 minutes, after which luminescence was measured.

In assay [2] the test system is C57Bl/6J male mice. As to the kind of experiment: DOI-induced head twitch response in mice. The assay is classed as in vivo. To be noted: Mus musculus.
Assay [3] has as its system C57Bl/6J male mice. The assay can be described thus: PCP-induced hyperlocomotion in open field activity monitors. Type of assay: in vivo. As to conditions: Mus musculus.
Description: PCP-induced hyperlocomotion was measured in open field activity monitor chambers. […] All studies were performed in a blinded and randomized manner and potencies were calculated. Clozapine was used as the basis for comparison.
The data depicted in FIGS. 2-5, summarizes Mouse data—Male C57BL6J mice from JAX ˜12 weeks old. Studies were randomized and investigator was blinded. The figures contain three ways of analyzing the data obtained from the Versamax open field activity monitors on the same cohort of mice. The infrared beams in the chambers measure breaks in X, Y, and Z planes. Typically data are reported for Horizontal beam breaks and sometimes for distance travelled and stereotypy in studies involving PCP.
Male C57BL6 mice from JAX were used at 12-15 weeks of age, n=6 for all conditions). All mice were naïve at the time of testing. […] Mice were then treated with 0.9% saline (i.p.) or PCP (10 mg/kg, i.p.) and monitored for an additional 60 minutes. All measurements were recorded by VersaMax software, and experimenter was blinded to treatment. The summary figure is a compilation of distance travelled over the last 60 minutes with drug treatment. […] Data analyzed via two-way ANOVA followed by Sidak post hoc test to assess statistical differences between animals which received saline of PCP following nelotanserin, clozapine, or vehicle.
Male C57BL6 mice from JAX were used at 12-15 weeks of age, n=6 for all conditions). All mice were naïve at the time of testing. […] Mice were then treated with 0.9% saline (i.p.) or PCP (10 mg/kg, i.p.) and monitored for an additional 60 minutes. All measurements were recorded by VersaMax software, and experimenter was blinded to treatment. The summary figure is a compilation of the sum of beam breaks (X, Y plane) monitored over the last 60 minutes. […] Data analyzed via two-way ANOVA followed by Sidak post hoc test to assess statistical differences between animals which received saline of PCP following nelotanserin, clozapine, or vehicle.
Male C57BL6 mice from JAX were used at 12-15 weeks of age, n=6 for all conditions). All mice were naïve at the time of testing. […] Mice were then treated with 0.9% saline (i.p.) or PCP (10 mg/kg, i.p.) and monitored for an additional 60 minutes. All measurements were recorded by VersaMax software, and experimenter was blinded to treatment. The summary figure is a compilation of the sum of beam breaks (X, Y, Z stereotypy measures) monitored over the last 60 minutes. […] Data analyzed via two-way ANOVA followed by Sidak post hoc test to assess statistical differences between animals which received saline of PCP following nelotanserin, clozapine, or vehicle.
The subject of assay [4] is serotonin-induced intracellular calcium release. As to the kind of experiment: serotonin-induced intracellular calcium release assay. Type of assay: cell-based. As to conditions: FIG. 6. On the technique in general: Calcium assays in cells follow changes in intracellular calcium, usually with a dye or a luminescent sensor.
In a further assay the target is T2, 5HT2C (Homo sapiens, UniProt P28335).
T2 sequence (P28335 33-458): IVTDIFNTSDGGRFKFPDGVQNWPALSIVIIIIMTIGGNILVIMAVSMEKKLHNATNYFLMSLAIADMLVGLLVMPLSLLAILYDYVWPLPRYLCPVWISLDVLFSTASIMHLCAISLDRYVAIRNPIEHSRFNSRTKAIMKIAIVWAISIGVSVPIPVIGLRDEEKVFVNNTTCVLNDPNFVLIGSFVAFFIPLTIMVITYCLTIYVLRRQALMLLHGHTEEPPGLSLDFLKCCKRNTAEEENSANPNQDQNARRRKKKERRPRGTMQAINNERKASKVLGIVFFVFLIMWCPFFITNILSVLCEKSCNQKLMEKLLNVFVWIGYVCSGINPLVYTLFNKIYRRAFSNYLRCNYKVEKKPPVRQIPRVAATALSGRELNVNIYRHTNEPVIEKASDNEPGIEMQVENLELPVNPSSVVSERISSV
As to the kind of experiment: selectivity of 5HT2A inverse agonist over 5HT2C. As to conditions: 5HT2A over 5HT2C.

Assay [5] deals with panel of 66 receptors and ion channels. The assay can be described thus: panel of 66 receptors and ion channels.
Where [6] appears, read: compound alone, βarrestin2 recruitment.

Turning to `COc1ccc(NC(=O)Nc2ccc(F)cc2F)cc1-c1c(Br)cnn1C` [Nelotanserin, nelotanserin], it took 3.74 nM to reach a half-maximal effect in assay [1] (EC50). Further, the “% Max of 5HT” value in assay [1] (setting [6]) was −2.21%. This compound also showed a Fold in assay [1] (setting [6]) of 0.90 Fold. Besides, in assay [1] (serotonin-induced, h5HT2A-Dx-U2OS cells, 90 minutes at 37° C., read-out: IC50 (SEM), antagonist of the recruitment of β-arrestin 2 to the 5HT2A receptor), the IC50 amounted to 3.74 nM. In addition, the ED50 with C57Bl/6J male mice [2] (read-out: ED50 (95% CL), block of DOI-induced head twitches) came out at 2.4 mg/kg; in the assay with C57Bl/6J male mice [2] (read-out: ED 50 (95% confidence limits), DOI-induced head twitch of FIG. 5), 2.4 mg/kg; in the assay with C57Bl/6J male mice [3] (ip, 1 h, beam breaks X, Y, Z, nelotanserin 1-10 mg/kg i.p., PCP 10 mg/kg i.p., last 60 minutes, read-out: ED 50 (95% confidence limits), stereotypy counts of FIG. 4), 3.8 mg/kg; in the assay with C57Bl/6J male mice [3] (ip, 1 h, horizontal beam breaks (X, Y plane), nelotanserin 1-10 mg/kg i.p., PCP 10 mg/kg i.p., last 60 minutes, read-out: ED 50 (95% confidence limits), beam breaks data of FIG. 3), 4.3 mg/kg; in the assay on C57Bl/6J male mice [3] (ip, 1 h, nelotanserin 1-10 mg/kg i.p., PCP 10 mg/kg i.p., last 60 minutes, read-out: ED 50 (95% confidence limits), total distance traveled data of FIG. 2), 3 mg/kg; with C57Bl/6J male mice [3] (i.p., 30 minutes before PCP 10 mg/kg i.p., read-out: ED50 (95% CL), inhibition of PCP-induced hyperlocomotor activity), 3 mg/kg. Moreover, the “serotonin-induced intracellular calcium release” value in assay [4] was “inhibited”. Besides, the “potency relative to pimavanserin or clozapine, intracellular calcium release” value in assay [4] (serotonin-induced) is listed as “about 2 fold”. Further, the “selectivity over 5HT2C” value on 5HT2C is 80 fold. The “activity in a panel of 66 receptors and ion channels” value in assay [5] was “inactive”.

Consider `NCCc1c[nH]c2ccc(O)cc12` [Compound 5HT, serotonin, reference compound], for which the “% Max of 5HT” value in assay [1] (setting [6]) was 98.20%.
